Source: publication PMC2656767 (The Journal of organic chemistry, 2009)

Tests used:
[1] = system: wild type (ATCC 90027) C. albicans; assay: Modified disk diffusion assay, wild type C. albicans; format: cell-based, Candida albicans; conditions: wild type strain, loads of 1-5 μg/disk
[2] = system: amphotericin B resistant C. albicans (ATCC 200955); assay: Modified disk diffusion assay, amphotericin B resistant C. albicans; format: cell-based; conditions: amphotericin B-resistant strain, loads of 1-5 μg/disk

Theopapuamide A [compound 7]
antifungal activity (in words) [1]: activity | antifungal activity (in words) [2]: activity
